Experimental findings from US20260070924A1, “INDAZOLE MACROCYCLES AND THEIR USE” (BLOSSOMHILL THERAPEUTICS, INC., priority 2022, published 2026) are described below.

The subject of one test is MV-4-11 cells. In words: MV-4-11 cell proliferation assay (CellTiter-Glo 2.0). Particulars: MV-4-11, 384-well, 11-dose dilution series, read-out: IC50, inhibition of MV-4-11 cell proliferation. The format is cell-based. On the procedure:
MV-4-11 cell line was purchased from ATCC and maintained in RPMI medium supplemented with 10% fetal bovine serum and 100 U/mL of penicillin/streptomycin. One thousand MV-4-11 cells/50 μl per well were seeded in white 384-well plate, followed by treatment with indicated compounds in a 11-dose dilution series. Cell proliferation was measured using CellTiter-Glo 2.0 luciferase-based ATP detection assay (Promega, Madison, WI) following the manufacturer's protocol. Plates were then read on a TECAN Sparks multimode microplate reader. Data was analyzed using GraphPad Prism 9 (GraphPad Software, San Diego, CA) to obtain IC50 values.
(In general: Cellular ATP, detected with luciferase, serves as a proxy for viable cell number.)

A further test concerns the target CLK4 (Homo sapiens (Human), UniProt Q9HAZ1). Kind of test: CLK kinase activity assay (ADP-Glo). The format is biochemical. As to the method:
(§1) Kinase protein and substrate were pre-diluted in the HEPES assay buffer (100 mM HEPES, pH 7.5, 0.01% Triton X-100, 0.1% BSA, 5 mM MgCl2, 1 mM DTT, 10 μM Sodium Orthovanadate, 10 μM Beta-Glycerophosphate) dispensed into 384 well plate (5 μL per well). Control samples (0%-inhibition in the absence of inhibitor, DMSO only) and 100%-inhibition (in the absence of enzyme) were assembled in replicates of six and were used to calculate %-inhibition in the presence of compounds. Test compounds were added to the protein samples by acoustic dispensing (Labcyte Echo550). Concentration of DMSO was equalized to 1% in all samples. Reactions were initiated by addition of ATP by acoustic dispensing (Labcyte Echo550) and incubated according to assay specific incubation time. After incubation, 5 uL of Promega ADP-Glo reagent was added and incubated for 40 minutes. After 40 minutes, 10 uL of Promega kinase detection reagent was added. After 10 min of incubation with Kinase detection reagent, the luminescence was read on microplate reader (Biotek Synergy).
A general note: In ADP-Glo the light output rises with the ADP produced.

The target in a further test is CLK2 (Homo sapiens (Human), UniProt P49760). Kind of test: CLK kinase activity assay (ADP-Glo). The format is biochemical. As to the method:
as §1

A further test has as its target CLK3 (Homo sapiens (Human), UniProt P49761). Kind of test: CLK kinase activity assay (ADP-Glo). It is filed as biochemical. On the procedure: as §1
A further test has as its target CLK1 (Homo sapiens (Human), UniProt P49759). Kind of test: CLK kinase activity assay (ADP-Glo). The format is biochemical. On the procedure:
as §1

The next test deals with FLT3 (Homo sapiens (Human), UniProt P36888). Kind of test: HotSpot radiometric kinase assay (Reaction Biology). It is filed as biochemical.
Sequence of FLT3 (P36888 27-993): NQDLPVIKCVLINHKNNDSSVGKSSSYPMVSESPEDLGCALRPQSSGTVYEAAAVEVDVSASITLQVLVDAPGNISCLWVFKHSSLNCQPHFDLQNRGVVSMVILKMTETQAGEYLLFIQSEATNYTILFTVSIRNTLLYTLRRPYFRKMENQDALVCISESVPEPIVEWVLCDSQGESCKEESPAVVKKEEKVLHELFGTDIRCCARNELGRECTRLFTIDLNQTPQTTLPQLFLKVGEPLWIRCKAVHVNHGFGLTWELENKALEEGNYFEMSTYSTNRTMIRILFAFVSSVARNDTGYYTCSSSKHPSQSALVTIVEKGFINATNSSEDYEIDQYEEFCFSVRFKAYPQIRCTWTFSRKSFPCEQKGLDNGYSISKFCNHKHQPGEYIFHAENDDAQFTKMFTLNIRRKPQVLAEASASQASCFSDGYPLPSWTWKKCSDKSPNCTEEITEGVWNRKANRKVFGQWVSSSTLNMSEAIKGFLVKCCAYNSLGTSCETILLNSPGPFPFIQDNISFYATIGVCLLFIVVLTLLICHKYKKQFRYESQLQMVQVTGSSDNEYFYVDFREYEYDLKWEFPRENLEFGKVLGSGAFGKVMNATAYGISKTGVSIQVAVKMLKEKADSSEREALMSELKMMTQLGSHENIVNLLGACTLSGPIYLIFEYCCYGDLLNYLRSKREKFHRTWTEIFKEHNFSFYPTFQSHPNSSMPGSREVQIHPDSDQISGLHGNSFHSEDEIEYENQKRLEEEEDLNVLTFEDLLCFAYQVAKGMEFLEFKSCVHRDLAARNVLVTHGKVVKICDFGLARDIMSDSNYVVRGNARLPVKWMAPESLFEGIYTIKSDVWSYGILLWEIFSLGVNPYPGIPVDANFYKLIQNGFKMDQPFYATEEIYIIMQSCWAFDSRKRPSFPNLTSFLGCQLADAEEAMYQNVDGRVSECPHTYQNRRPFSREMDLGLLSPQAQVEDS
A further test has as its target FLT3-ITD (Homo sapiens, UniProt P36888, ITD). The description is as above. The format is biochemical.

Like-named read-outs stand apart in the source and are kept apart here.

Sequence of CLK2 (P49760 whole entry): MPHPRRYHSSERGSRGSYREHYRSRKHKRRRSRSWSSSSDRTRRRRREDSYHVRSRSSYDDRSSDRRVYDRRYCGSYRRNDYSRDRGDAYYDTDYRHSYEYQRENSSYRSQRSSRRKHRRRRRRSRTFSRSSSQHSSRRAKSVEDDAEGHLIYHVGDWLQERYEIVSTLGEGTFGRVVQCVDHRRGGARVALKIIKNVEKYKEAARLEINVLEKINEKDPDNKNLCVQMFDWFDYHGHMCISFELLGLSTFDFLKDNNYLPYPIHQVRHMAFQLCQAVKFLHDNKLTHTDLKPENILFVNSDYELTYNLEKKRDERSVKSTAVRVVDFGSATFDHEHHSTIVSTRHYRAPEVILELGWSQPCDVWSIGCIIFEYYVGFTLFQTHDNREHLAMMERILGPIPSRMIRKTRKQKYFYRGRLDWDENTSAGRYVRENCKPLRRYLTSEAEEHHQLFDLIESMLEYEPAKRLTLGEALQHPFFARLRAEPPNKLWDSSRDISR
Sequence of CLK1 (P49759 whole entry): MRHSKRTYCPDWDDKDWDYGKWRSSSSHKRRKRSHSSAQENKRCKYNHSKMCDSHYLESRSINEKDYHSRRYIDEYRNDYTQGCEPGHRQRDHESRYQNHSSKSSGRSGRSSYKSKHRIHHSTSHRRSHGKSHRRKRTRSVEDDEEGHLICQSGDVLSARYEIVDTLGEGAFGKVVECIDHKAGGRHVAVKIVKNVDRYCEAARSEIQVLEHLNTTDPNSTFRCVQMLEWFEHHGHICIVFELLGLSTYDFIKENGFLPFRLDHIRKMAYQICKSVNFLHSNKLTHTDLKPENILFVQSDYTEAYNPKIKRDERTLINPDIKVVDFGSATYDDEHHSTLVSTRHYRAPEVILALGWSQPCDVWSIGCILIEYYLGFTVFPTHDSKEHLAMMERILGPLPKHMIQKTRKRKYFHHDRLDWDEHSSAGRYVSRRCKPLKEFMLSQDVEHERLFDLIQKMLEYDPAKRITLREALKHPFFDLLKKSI
Sequence of CLK4 (Q9HAZ1 whole entry): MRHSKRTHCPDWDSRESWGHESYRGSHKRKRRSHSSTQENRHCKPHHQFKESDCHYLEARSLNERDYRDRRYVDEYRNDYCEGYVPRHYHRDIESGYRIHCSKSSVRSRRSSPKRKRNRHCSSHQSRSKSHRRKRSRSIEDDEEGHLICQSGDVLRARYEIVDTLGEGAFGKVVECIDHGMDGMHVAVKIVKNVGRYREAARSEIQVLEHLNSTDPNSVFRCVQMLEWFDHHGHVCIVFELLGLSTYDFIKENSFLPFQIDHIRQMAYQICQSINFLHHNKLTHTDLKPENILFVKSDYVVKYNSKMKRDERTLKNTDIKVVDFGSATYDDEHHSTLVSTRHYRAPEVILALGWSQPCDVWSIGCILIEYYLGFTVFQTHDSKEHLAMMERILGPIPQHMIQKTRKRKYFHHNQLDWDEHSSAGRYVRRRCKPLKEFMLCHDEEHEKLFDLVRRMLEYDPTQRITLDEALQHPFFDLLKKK
Sequence of CLK3 (P49761 whole entry): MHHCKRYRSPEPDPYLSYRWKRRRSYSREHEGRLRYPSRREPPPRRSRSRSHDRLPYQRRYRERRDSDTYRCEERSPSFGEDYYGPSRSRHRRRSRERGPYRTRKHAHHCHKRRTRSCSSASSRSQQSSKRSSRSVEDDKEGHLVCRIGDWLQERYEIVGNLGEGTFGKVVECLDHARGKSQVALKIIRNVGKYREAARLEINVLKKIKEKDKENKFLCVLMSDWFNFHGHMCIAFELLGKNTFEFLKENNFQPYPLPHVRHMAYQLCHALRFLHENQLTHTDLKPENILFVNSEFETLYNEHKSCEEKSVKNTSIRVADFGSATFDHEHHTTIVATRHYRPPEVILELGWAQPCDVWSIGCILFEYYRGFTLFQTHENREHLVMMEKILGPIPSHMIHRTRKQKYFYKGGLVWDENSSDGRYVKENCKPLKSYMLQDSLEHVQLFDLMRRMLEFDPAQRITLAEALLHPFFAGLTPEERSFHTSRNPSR
Sequence of FLT3-ITD (P36888 whole entry, looked up, change not shown): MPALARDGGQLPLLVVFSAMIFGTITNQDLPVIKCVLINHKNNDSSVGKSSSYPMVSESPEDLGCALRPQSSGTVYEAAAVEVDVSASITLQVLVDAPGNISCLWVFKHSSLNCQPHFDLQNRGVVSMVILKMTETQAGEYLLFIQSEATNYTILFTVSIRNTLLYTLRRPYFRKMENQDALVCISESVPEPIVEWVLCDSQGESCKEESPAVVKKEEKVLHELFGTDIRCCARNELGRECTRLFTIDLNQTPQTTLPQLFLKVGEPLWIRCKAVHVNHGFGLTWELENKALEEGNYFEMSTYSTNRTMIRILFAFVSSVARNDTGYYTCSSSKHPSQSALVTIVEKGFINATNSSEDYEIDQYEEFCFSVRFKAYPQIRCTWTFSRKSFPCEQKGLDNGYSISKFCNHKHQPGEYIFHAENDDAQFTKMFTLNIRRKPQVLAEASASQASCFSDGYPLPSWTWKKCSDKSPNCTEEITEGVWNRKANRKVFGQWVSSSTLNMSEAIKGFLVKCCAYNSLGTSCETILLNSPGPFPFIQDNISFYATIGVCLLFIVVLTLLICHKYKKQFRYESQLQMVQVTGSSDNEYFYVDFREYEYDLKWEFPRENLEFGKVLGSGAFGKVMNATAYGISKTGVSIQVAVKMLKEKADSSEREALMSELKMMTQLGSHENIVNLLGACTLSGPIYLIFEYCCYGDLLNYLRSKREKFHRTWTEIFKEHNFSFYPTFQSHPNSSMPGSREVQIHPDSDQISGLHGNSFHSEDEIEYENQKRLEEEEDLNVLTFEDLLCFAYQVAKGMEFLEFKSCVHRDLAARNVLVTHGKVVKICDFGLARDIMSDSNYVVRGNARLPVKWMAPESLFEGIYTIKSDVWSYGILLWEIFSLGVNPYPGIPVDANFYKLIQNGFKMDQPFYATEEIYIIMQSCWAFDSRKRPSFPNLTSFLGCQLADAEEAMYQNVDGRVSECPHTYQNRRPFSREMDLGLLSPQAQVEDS
Protocol for FLT3-ITD: Briefly, specific kinase/substrate pairs along with required cofactors were prepared in reaction buffer; 20 mM Hepes pH 7.5, 10 mM MgCl2, 1 mM EGTA, 0.02% Brij35, 0.02 mg/ml BSA, 0.1 mM Na3VO4, 2 mM DTT, 1% DMSO. Compounds were delivered into the reaction, followed ˜20 minutes later by addition of a mixture of ATP (Sigma, St. Louis MO) and ^33P ATP (Perkin Elmer, Waltham MA) to a final concentration of 10 M. Reactions were carried out at room temperature for 120 min, followed by spotting of the reactions onto P81 ion exchange filter paper (Whatman Inc., Piscataway, NJ). Unbound phosphate was removed by extensive washing of filters in 0.75% phosphoric acid. […] IC50 values and curve fits were obtained using Prism (GraphPad Software).

`CCc1c2c(nn1C)C(=O)N(C)CCOc1ccc(F)cc1-c1ccc3[nH]nc(c3c1)/C=C/2` [Ex. 1, (18E)-17-ethyl-7-fluoro-13,16-dimethyl-2,12,13,16-tetrahydro-3,5-ethenodipyrazolo[3,4-f:3′,4′-j][1,4]benzoxazacyclopentadecin-14(11H)-one]: in the test on MV-4-11 cells (Homo sapiens, MV4-11), the IC50 stood at 1160 nM.
`CCc1nn(C)c2c1/C=C/c1n[nH]c3ccc(cc13)-c1cnn(C)c1O[C@@H](C)CN(C)C2=O` [Ex. 23, (10S,17E)-16-ethyl-8,10,12,14-tetramethyl-2,11,12,14-tetrahydro-8H-3,5-ethenotripyrazolo[3,4-f:3′,4′-j:4″,3″-n][1,4]oxazacyclopentadecin-13(10H)-one]: the IC50 at CLK4 is 1.39 nM; at CLK2 it was 0.225 nM; at CLK3, 5.53 nM; on CLK1, 0.843 nM; in the test on MV-4-11 cells (Homo sapiens, MV4-11), 4.1 nM; at FLT3, 0.416 nM. The compound also yielded an IC50 on FLT3-ITD of 0.967 nM.
Take `Cc1c2c(nn1C)C(=O)NCCOc1c(cnn1C)-c1ccc3[nH]nc(c3c1)/C=C/2` [Ex. 10, (17E)-8,15,16-trimethyl-2,11,12,15-tetrahydro-8H-3,5-ethenotripyrazolo[3,4-f:3′,4′-j:4″,3″-n][1,4]oxazacyclopentadecin-13(10H)-one]: in the test with MV-4-11 cells (Homo sapiens, MV4-11), the IC50 was 865 nM.
As to `CCOc1nn(CCO)c2c1/C=C/c1n[nH]c3ccc(cc13)-c1cnn(C)c1OCCN(C)C2=O` [Ex. 27, (17E)-16-ethoxy-14-(2-hydroxyethyl)-8,12-dimethyl-2,11,12,14-tetrahydro-8H-3,5-ethenotripyrazolo[3,4-f:3′,4′-j:4″,3″-n][1,4]oxazacyclopentadecin-13(10H)-one], the IC50 on CLK4 worked out at 3.03 nM; at CLK2 it was 1.11 nM; at CLK3, 108 nM; at CLK1 it was 1.55 nM; with MV-4-11 cells (Homo sapiens, MV4-11), 7.6 nM.
In the case of `Cc1nn(C(C)C)c2c1/C=C/c1n[nH]c3ccc(cc13)-c1cnn(C)c1OCCN(C)C2=O` [compound 20, (17E)-8,12,16-trimethyl-14-(propan-2-yl)-2,11,12,14-tetrahydro-8H-3,5-ethenotripyrazolo[3,4-f:3′,4′-j:4″,3″-n][1,4]oxazacyclopentadecin-13(10H)-one], the IC50 with MV-4-11 cells (Homo sapiens, MV4-11) is 1.1 nM; against FLT3, 0.187 nM; against FLT3-ITD it was 0.775 nM.
As for `CCOc1nn(C)c2c1/C=C/c1n[nH]c3ccc(cc13)-c1cnn(C)c1OCCN(C)C2=O` [Ex. 22, (17E)-16-ethoxy-8,12,14-trimethyl-2,11,12,14-tetrahydro-8H-3,5-ethenotripyrazolo[3,4-f:3′,4′-j:4″,3″-n][1,4]oxazacyclopentadecin-13(10H)-one], the IC50 was 0.668 nM at CLK4; 0.253 nM at CLK2; 9.47 nM on CLK3; 0.355 nM on CLK1; below 0.2 nM in the test on MV-4-11 cells (Homo sapiens, MV4-11); 0.093 nM against FLT3. In addition, at FLT3-ITD, the IC50 worked out at 0.527 nM.
`CCc1noc2c1/C=C/c1n[nH]c3ccc(cc13)-c1cnn(C)c1OCCN(C)C2=O` [Ex. 25, (17E)-16-ethyl-8,12-dimethyl-2,8,11,12-tetrahydro-3,5-etheno[1,2]oxazolo[5,4-f]dipyrazolo[3,4-j:4′,3′-n][1,4]oxazacyclopentadecin-13(10H)-one]: in the test on MV-4-11 cells (Homo sapiens, MV4-11), the IC50 came out at 0.52 nM.
On the same count and under the same terms, with `[2H]C([2H])([2H])N1CCOc2c(cnn2C)-c2ccc3[nH]nc(c3c2)/C=C/c2c(CC)nn(C([2H])([2H])[2H])c2C1=O` [compound 21, (17E)-16-ethyl-8-methyl-12,14-bis[(^2H3)methyl]-2,11,12,14-tetrahydro-8H-3,5-ethenotripyrazolo[3,4-f:3′,4′-j:4″,3″-n][1,4]oxazacyclopentadecin-13(10H)-one] the figure was below 0.2 nM; with `CCc1nn(C)c2c1/C=C/c1n[nH]c3ccc(cc13)-c1cc(F)ccc1OCCN(C)C2=O` [Ex. 2, (18E)-17-ethyl-7-fluoro-13,15-dimethyl-2,12,13,15-tetrahydro-3,5-ethenodipyrazolo[3,4-f:3′,4′-j][1,4]benzoxazacyclopentadecin-14(11H)-one], 353 nM.
`CCc1c2c(nn1C)C(=O)N(C)CCOc1ccc(F)cc1-c1cc(Cl)c3[nH]nc(c3c1)/C=C/2` [compound 5, (18E)-21-chloro-17-ethyl-7-fluoro-13,16-dimethyl-2,12,13,16-tetrahydro-3,5-ethenodipyrazolo[3,4-f:3′,4′-j][1,4]benzoxazacyclopentadecin-14(11H)-one]: in the test on MV-4-11 cells (Homo sapiens, MV4-11), the IC50 is above 10000 nM.
Consider `Cc1nn(C)c2c1/C=C/c1n[nH]c3ccc(cc13)-c1cnn(C)c1CN(C)CCN(C)C2=O` [Ex. 15, (18E)-8,10,13,15,17-pentamethyl-2,8,9,10,11,12,13,15-octahydro-14H-3,5-ethenotripyrazolo[3,4-f:3′,4′-j:4″,3″-n][1,4]diazacyclohexadecin-14-one], for which the IC50 came to 0.53 nM on CLK4; 0.161 nM at CLK2; 2.77 nM at CLK3; 0.157 nM at CLK1; 4.6 nM with MV-4-11 cells (Homo sapiens, MV4-11).
On to `CCn1nc(C)c2c1C(=O)N(C)CCOc1c(cnn1C)-c1ccc3[nH]nc(c3c1)/C=C/2` [compound 11, (17E)-14-ethyl-8,12,16-trimethyl-2,11,12,14-tetrahydro-8H-3,5-ethenotripyrazolo[3,4-f:3′,4′-j:4″,3″-n][1,4]oxazacyclopentadecin-13(10H)-one], for which the IC50 with MV-4-11 cells (Homo sapiens, MV4-11) is below 0.2 nM.
Consider `Cc1c2c(nn1CCN1CCCC1)C(=O)N(C)CCOc1c(cnn1C)-c1ccc3[nH]nc(c3c1)/C=C/2` [Ex. 19, (17E)-8,12,16-trimethyl-15-[2-(pyrrolidin-1-yl)ethyl]-2,11,12,15-tetrahydro-8H-3,5-ethenotripyrazolo[3,4-f:3′,4′-j:4″,3″-n][1,4]oxazacyclopentadecin-13(10H)-one], for which the IC50 in the test with MV-4-11 cells (Homo sapiens, MV4-11) was found to be 15.2 nM; on FLT3, 0.564 nM; against FLT3-ITD, 1.05 nM.
For “(18E)-15-(2-hydroxyethyl)-8,10,13,17-tetramethyl-2,8,9,10,11,12,13,15-octahydro-14H-3,5-ethenotripyrazolo[3,4-f:3′,4′-j:4″,3″-n][1,4]diazacyclohexadecin-14-one [Ex. 26]”, the IC50 was 0.605 nM on CLK4; 0.386 nM at CLK2; 31.1 nM on CLK3; 0.233 nM at CLK1; 15 nM with MV-4-11 cells.
As for `Cc1nn(CCO)c2c1/C=C/c1n[nH]c3ccc(cc13)-c1cnn(C)c1OCCN(C)C2=O` [Ex. 16, (17E)-14-(2-hydroxyethyl)-8,12,16-trimethyl-2,11,12,14-tetrahydro-8H-3,5-ethenotripyrazolo[3,4-f:3′,4′-j:4″,3″-n][1,4]oxazacyclopentadecin-13(10H)-one], the IC50 at CLK4 was 0.758 nM; on CLK2, 0.16 nM; at CLK3 it was 10.4 nM; at CLK1, 0.299 nM; in the test on MV-4-11 cells (Homo sapiens, MV4-11), below 1 nM.
In the case of `Cc1nn(C)c2c1/C=C/c1n[nH]c3ccc(cc13)-c1cnn(C)c1OCCCN(C)C2=O` [Ex. 13, (18E)-8,13,15,17-tetramethyl-2,10,11,12,13,15-hexahydro-3,5-ethenotripyrazolo[3,4-g:3′,4′-k:4″,3″-o][1,5]oxazacyclohexadecin-14(8H)-one], the IC50 in the test on MV-4-11 cells (Homo sapiens, MV4-11) came to 15.5 nM.
`Cc1nn(CCN2CCCC2)c2c1/C=C/c1n[nH]c3ccc(cc13)-c1cnn(C)c1OCCN(C)C2=O` [Ex. 18, (17E)-8,12,16-trimethyl-14-[2-(pyrrolidin-1-yl)ethyl]-2,11,12,14-tetrahydro-8H-3,5-ethenotripyrazolo[3,4-f:3′,4′-j:4″,3″-n][1,4]oxazacyclopentadecin-13(10H)-one]: the IC50 with MV-4-11 cells (Homo sapiens, MV4-11) is 17.8 nM.
Turning to `CN1CCOc2c(cnn2C)-c2ccc3[nH]nc(c3c2)/C=C/c2cn(C)nc2C1=O` [compound 4, (17E)-8,12,15-trimethyl-2,11,12,15-tetrahydro-8H-3,5-ethenotripyrazolo[3,4-f:3′,4′-j:4″,3″-n][1,4]oxazacyclopentadecin-13(10H)-one], the IC50 in the test on MV-4-11 cells (Homo sapiens, MV4-11) came out at 21.2 nM.
As to `Cc1nn(C)c2c1/C=C/c1n[nH]c3ccc(cc13)-c1cnn(C)c1OCCOCCN(C)C2=O` [compound 14, (15E)-3,10,12,14-tetramethyl-5,6,9,10,12,18-hexahydro-3H-19,21-ethenotripyrazolo[3,4-i:3′,4′-m:4″,3″-q][1,4,7]dioxazacyclooctadecin-11(8H)-one], in the test with MV-4-11 cells (Homo sapiens, MV4-11), the IC50 came to 384 nM.
